From ChEMBL document CHEMBL5131443, “Discovery of a benzimidazole-based dual FLT3/TrKA inhibitor targeting acute myeloid leukemia” (Bioorg Med Chem, 2022)
Active and inactive are the calls of the source. The calls are words filed in the database; no cut-off is given here.

Assays:
[1] = target: T1, Receptor-type tyrosine-protein kinase FLT3 (Homo sapiens, UniProt P36888); type: cell-based, RS4-11
[2] = target: T2, Receptor-type tyrosine-protein kinase FLT3 (Homo sapiens, UniProt P36888, ITD); type: cell-based, MV4-11
[3] = target: T3, Receptor-type tyrosine-protein kinase FLT3 (Homo sapiens, UniProt P36888, D835Y)
[4] = target: Tyrosine-protein kinase ABL1 (Homo sapiens) (UniProt P00519); assay: Inhibition of His-tagged recombinant human ABL1 at 1 uM
MOLM-13 [5] = assay: Induction of apoptosis in human MOLM-13 cells assessed as increase number of apoptotic cells at 10 to 50 nM measured after 72 hrs by propidium iodide staining based flow cytometry; type: functional, cell-based; settings: dose 10-50 nM
MV4-11 [6] = assay: Inhibition of colony formation in human MV4-11 cells at 500 nM measured after 14 days; type: functional, cell-based; settings: time 14.0 day
MOLM-13 [7] = assay: Inhibition of colony formation in human MOLM-13 cells at 500 nM measured after 7 days; type: functional, cell-based; settings: time 7.0 day
KM12 = assay: Anticancer activity against human KM12 cells assessed as cell viability after 72 hrs by ATP Cell Titer G1oTM assay; type: functional, cell-based; settings: KM12, 72 h
[8] = test system: Receptor-type tyrosine-protein kinase FLT3 (Homo sapiens), P36888 [UNDEFINED MUTATION]; assay: Inhibition of FLT3-ITD mutant in human MOLM-13 cells assessed as decrease in Erk1/2 phosphorylation measured after 24 to 48 hrs by Western blot analysis; type: cell-based; settings: dose 10-100 nM, time 24-48 hrs, DDE = dose-dependent effect
[9] = test system: Receptor-type tyrosine-protein kinase FLT3 (Homo sapiens), P36888 [UNDEFINED MUTATION]; assay: Inhibition of FLT3-ITD mutant in human MOLM-13 cells assessed as decrease in p-S6 kinase level measured after 24 to 48 hrs by Western blot analysis; type: cell-based; settings: dose 10-100 nM, time 24-48 hrs, DDE = dose-dependent effect
[10] = test system: Receptor-type tyrosine-protein kinase FLT3 (Homo sapiens), P36888 [UNDEFINED MUTATION]; assay: Inhibition of FLT3-ITD mutant in human MV4-11 cells assessed as decrease in p-S6 kinase level measured after 24 to 48 hrs by Western blot analysis; type: cell-based; settings: dose 10-100 nM, time 24-48 hrs, DDE = dose-dependent effect
[11] = test system: Receptor-type tyrosine-protein kinase FLT3 (Homo sapiens), P36888 [UNDEFINED MUTATION]; assay: Inhibition of FLT3-ITD mutant in human MV4-11 cells assessed as decrease in Erk1/2 phosphorylation measured after 24 to 48 hrs by Western blot analysis; type: cell-based; settings: dose 10-100 nM, time 24-48 hrs, DDE = dose-dependent effect
MOLM-13 [12] = assay: Cell cycle arrest in human MOLM-13 cells assessed as accumulation at G0/G1 phase at 10 to 50 nM measured after 72 hrs by flow cytometry; type: functional, cell-based; settings: dose 10-50 nM
MV4-11 [13] = assay: Cell cycle arrest in human MV4-11 cells assessed as accumulation at G0/G1 phase at 10 to 50 nM measured after 72 hrs by flow cytometry; type: functional, cell-based; settings: dose 10-50 nM
MV4-11 [14] = assay: Induction of apoptosis in human MV4-11 cells assessed as increase number of apoptotic cells at 10 to 50 nM measured after 72 hrs by propidium iodide staining based flow cytometry; type: functional, cell-based; settings: dose 10-50 nM
MV4-11 [15] = assay: Induction of apoptosis in human MV4-11 cells assessed as increase number of necrotic cells at 10 to 50 nM measured after 72 hrs by propidium iodide staining based flow cytometry; type: functional, cell-based; settings: dose 10-50 nM
MOLM-13 [16] = assay: Induction of apoptosis in human MOLM-13 cells assessed as increase number of necrotic cells at 10 to 50 nM measured after 72 hrs by propidium iodide staining based flow cytometry; type: functional, cell-based; settings: dose 10-50 nM
BNL = assay: Cytotoxicity against mouse BNL cells assessed as cell viability at 10 to 50 nM measured after 72 hrs by ATP Cell titer-Glo assay; type: toxicity, cell-based; settings: 0.05 µM, dose 10-50 nM
H9c2 = assay: Cytotoxicity against rat H9c2 cells assessed as cell viability at 10 to 50 nM measured after 72 hrs by ATP Cell titer-Glo assay; type: toxicity, cell-based; settings: h9c2, 72 h, 0.05 µM, dose 10-50 nM
[17] = target: CDK2/Cyclin A2 (Homo sapiens) (UniProt P24941+P20248); assay: Inhibition of His-tagged recombinant full length human CDK2/CyclinA expressed in baculovirus expression system at 1 uM by LanthaScreen assay
[18] = target: Fibroblast growth factor receptor 3 (Homo sapiens) (UniProt P22607); assay: Inhibition of FGFR3 (unknown origin) at 1 uM
[19] = target: Vascular endothelial growth factor receptor 1 (Homo sapiens) (UniProt P17948); assay: Inhibition of human recombinant FLT1 expressed in baculovirus expression system at 1 uM by LanthaScreen assay
[20] = target: Vascular endothelial growth factor receptor 3 (Homo sapiens) (UniProt P35916); assay: Inhibition of human recombinant FLT4 expressed in baculovirus expression system at 1 uM by LanthaScreen assay
[21] = target: Insulin-like growth factor 1 receptor (Homo sapiens) (UniProt P08069); assay: Inhibition of human recombinant IGF1R expressed in baculovirus expression system at 1 uM by LanthaScreen assay
[22] = target: Vascular endothelial growth factor receptor 2 (Homo sapiens) (UniProt P35968); assay: Inhibition of human recombinant KDR expressed in baculovirus expression system at 1 uM by LanthaScreen assay
[23] = target: Mast/stem cell growth factor receptor Kit (Homo sapiens) (UniProt P10721); assay: Inhibition of c-Kit (unknown origin) at 1 uM
[24] = target: Tyrosine-protein kinase Lck (Homo sapiens) (UniProt P06239); assay: Inhibition of human recombinant LCK expressed in baculovirus expression system at 1 uM by LanthaScreen assay
[25] = target: Platelet-derived growth factor receptor alpha (Homo sapiens) (UniProt P16234); assay: Inhibition of PDGFRA (unknown origin) at 1 uM
[26] = target: Platelet-derived growth factor receptor beta (Homo sapiens) (UniProt P09619); assay: Inhibition of human recombinant PDGFRB expressed in baculovirus expression system at 1 uM by LanthaScreen assay
[27] = target: Serine/threonine-protein kinase B-raf (Homo sapiens) (UniProt P15056); assay: Inhibition of B-raf (unknown origin) at 1 uM
[28] = target: Serine/threonine-protein kinase D2 (Homo sapiens) (UniProt Q9BZL6); assay: Inhibition of human recombinant PRKD2 expressed in baculovirus expression system at 1 uM by LanthaScreen assay
[29] = target: Serine/threonine-protein kinase pim-1 (Homo sapiens) (UniProt P11309); assay: Inhibition of human recombinant PIM1 expressed in baculovirus expression system at 1 uM by LanthaScreen assay
[30] = target: Proto-oncogene tyrosine-protein kinase Src (Homo sapiens) (UniProt P12931); assay: Inhibition of human recombinant Src expressed in baculovirus expression system at 1 uM by LanthaScreen assay
[31] = target: BDNF/NT-3 growth factors receptor (Homo sapiens) (UniProt Q16620); assay: Inhibition of human recombinant TrkB expressed in baculovirus expression system at 1 uM by LanthaScreen assay
[32] = target: NT-3 growth factor receptor (Homo sapiens) (UniProt Q16288); assay: Inhibition of human recombinant TrkC expressed in baculovirus expression system at 1 uM by LanthaScreen assay
[33] = target: T1, Receptor-type tyrosine-protein kinase FLT3
Description: Inhibition of recombinant His-tagged human FLT3 (564 to 958 residues) expressed in baculovirus expression system by LanthaScreen assay

[34] = target: T2, Receptor-type tyrosine-protein kinase FLT3
[35] = target: T3, Receptor-type tyrosine-protein kinase FLT3; remark: listed apart in the source
[36] = target: High affinity nerve growth factor receptor (Homo sapiens, UniProt P04629)
Description: Inhibition of recombinant His-tagged human TrKA expressed in baculovirus expression system by LanthaScreen assay

MOLM-13 [37] = assay: cells; settings: Homo sapiens, MOLM-13, 72 h
MV4-11 [38] = assay: cells; settings: Homo sapiens, MV4-11, 72 h

Platelet-derived growth factor receptor alpha (Homo sapiens), sequence (P16234 whole entry): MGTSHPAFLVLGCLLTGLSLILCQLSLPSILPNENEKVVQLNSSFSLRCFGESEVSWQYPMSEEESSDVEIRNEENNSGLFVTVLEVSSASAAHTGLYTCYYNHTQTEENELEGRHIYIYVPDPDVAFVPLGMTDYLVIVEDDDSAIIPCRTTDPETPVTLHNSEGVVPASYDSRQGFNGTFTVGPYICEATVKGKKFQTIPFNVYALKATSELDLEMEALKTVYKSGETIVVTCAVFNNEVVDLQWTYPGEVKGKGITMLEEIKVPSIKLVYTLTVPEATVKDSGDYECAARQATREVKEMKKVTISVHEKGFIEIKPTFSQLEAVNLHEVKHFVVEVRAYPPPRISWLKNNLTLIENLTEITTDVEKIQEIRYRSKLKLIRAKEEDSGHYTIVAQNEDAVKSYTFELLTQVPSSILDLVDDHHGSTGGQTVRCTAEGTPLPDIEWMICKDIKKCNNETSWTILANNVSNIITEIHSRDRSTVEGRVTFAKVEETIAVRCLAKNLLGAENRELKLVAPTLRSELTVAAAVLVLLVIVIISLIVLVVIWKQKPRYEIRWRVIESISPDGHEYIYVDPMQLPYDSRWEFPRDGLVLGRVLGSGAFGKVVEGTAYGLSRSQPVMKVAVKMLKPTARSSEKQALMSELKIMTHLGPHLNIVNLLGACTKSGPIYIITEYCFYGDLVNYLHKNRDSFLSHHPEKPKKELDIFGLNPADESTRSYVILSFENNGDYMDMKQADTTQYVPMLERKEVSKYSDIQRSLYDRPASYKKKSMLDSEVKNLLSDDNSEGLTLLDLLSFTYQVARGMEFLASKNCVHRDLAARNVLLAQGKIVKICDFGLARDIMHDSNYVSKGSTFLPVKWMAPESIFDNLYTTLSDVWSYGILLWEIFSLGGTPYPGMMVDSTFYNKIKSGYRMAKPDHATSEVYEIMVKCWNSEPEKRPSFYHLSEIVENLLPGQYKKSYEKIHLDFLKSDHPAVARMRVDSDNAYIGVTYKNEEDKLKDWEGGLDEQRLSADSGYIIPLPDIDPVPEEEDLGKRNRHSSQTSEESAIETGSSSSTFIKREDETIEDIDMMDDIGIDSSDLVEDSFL
Vascular endothelial growth factor receptor 2 (Homo sapiens), sequence (P35968 whole entry): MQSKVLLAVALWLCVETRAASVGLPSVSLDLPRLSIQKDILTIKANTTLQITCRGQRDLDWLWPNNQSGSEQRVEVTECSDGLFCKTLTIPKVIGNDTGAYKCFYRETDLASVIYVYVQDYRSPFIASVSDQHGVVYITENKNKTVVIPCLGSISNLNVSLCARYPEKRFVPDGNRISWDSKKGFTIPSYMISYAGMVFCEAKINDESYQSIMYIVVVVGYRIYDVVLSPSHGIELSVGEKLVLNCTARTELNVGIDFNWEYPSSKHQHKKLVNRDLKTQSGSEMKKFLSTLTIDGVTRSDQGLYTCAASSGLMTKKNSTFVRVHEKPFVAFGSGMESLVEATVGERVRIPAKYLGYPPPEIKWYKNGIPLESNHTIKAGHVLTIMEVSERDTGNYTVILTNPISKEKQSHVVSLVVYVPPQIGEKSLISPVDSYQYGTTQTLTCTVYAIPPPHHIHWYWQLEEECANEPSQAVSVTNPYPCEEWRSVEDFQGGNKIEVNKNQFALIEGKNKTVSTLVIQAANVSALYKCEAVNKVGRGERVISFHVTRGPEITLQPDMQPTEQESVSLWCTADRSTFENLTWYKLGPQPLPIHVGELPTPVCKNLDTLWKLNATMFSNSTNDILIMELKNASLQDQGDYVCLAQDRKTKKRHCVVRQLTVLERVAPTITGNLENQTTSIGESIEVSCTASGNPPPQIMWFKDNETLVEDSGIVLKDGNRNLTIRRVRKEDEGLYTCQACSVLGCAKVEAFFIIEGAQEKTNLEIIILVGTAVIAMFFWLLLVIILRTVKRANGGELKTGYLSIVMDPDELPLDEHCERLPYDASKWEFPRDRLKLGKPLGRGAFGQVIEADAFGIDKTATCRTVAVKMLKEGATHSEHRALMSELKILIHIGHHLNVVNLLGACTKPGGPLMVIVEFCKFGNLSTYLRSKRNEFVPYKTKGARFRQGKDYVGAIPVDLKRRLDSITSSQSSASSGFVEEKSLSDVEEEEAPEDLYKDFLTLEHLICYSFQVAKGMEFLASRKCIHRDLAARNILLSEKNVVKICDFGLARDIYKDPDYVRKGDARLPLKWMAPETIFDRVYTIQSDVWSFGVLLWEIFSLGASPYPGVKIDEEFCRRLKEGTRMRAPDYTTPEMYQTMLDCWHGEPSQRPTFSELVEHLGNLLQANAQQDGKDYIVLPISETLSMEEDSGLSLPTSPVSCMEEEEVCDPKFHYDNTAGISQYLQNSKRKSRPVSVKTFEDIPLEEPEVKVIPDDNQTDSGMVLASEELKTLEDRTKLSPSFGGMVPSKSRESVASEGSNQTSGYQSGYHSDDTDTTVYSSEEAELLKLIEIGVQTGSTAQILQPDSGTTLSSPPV
Fibroblast growth factor receptor 3 (Homo sapiens), sequence (P22607 23-806 limits assumed): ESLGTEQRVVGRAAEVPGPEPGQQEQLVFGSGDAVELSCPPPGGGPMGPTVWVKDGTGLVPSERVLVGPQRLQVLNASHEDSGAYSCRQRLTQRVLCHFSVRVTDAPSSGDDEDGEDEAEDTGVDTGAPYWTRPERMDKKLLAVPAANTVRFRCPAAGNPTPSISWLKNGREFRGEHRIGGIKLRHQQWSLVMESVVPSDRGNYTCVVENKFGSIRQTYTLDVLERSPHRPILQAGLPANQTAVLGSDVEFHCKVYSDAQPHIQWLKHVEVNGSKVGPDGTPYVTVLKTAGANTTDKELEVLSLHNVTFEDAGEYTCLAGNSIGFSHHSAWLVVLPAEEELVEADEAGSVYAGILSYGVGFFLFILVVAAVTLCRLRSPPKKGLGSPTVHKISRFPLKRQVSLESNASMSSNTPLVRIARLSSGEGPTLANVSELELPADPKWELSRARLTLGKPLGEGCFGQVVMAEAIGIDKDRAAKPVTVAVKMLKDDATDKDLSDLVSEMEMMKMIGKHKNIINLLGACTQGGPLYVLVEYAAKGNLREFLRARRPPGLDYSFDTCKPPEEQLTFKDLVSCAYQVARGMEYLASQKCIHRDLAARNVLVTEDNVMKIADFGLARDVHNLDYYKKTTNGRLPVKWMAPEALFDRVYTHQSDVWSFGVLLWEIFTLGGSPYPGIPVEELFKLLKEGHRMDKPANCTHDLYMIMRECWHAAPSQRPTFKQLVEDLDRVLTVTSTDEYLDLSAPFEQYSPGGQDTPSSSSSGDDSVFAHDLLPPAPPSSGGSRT
Serine/threonine-protein kinase B-raf (Homo sapiens), sequence (P15056 whole entry): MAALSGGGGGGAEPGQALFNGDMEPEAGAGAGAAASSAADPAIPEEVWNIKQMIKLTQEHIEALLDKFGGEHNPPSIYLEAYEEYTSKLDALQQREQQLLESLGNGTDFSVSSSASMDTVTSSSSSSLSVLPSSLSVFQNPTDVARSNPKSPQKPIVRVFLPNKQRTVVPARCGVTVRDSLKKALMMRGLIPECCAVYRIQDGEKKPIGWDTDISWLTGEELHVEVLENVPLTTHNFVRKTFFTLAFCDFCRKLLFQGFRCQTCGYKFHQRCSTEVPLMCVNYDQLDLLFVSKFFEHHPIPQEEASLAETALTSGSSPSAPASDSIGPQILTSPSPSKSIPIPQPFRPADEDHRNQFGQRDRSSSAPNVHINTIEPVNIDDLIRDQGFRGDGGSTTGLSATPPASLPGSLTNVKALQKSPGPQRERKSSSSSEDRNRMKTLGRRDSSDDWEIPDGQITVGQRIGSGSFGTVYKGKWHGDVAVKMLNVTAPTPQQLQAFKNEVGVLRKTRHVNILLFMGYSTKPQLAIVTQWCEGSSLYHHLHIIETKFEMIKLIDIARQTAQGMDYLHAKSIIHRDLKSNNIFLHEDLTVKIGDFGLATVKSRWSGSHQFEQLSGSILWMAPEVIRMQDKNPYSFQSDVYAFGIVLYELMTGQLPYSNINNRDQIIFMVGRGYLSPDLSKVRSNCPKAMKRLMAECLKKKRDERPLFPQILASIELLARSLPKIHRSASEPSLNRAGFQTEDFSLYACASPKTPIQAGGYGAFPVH
Tyrosine-protein kinase ABL1 (Homo sapiens), sequence (P00519 whole entry): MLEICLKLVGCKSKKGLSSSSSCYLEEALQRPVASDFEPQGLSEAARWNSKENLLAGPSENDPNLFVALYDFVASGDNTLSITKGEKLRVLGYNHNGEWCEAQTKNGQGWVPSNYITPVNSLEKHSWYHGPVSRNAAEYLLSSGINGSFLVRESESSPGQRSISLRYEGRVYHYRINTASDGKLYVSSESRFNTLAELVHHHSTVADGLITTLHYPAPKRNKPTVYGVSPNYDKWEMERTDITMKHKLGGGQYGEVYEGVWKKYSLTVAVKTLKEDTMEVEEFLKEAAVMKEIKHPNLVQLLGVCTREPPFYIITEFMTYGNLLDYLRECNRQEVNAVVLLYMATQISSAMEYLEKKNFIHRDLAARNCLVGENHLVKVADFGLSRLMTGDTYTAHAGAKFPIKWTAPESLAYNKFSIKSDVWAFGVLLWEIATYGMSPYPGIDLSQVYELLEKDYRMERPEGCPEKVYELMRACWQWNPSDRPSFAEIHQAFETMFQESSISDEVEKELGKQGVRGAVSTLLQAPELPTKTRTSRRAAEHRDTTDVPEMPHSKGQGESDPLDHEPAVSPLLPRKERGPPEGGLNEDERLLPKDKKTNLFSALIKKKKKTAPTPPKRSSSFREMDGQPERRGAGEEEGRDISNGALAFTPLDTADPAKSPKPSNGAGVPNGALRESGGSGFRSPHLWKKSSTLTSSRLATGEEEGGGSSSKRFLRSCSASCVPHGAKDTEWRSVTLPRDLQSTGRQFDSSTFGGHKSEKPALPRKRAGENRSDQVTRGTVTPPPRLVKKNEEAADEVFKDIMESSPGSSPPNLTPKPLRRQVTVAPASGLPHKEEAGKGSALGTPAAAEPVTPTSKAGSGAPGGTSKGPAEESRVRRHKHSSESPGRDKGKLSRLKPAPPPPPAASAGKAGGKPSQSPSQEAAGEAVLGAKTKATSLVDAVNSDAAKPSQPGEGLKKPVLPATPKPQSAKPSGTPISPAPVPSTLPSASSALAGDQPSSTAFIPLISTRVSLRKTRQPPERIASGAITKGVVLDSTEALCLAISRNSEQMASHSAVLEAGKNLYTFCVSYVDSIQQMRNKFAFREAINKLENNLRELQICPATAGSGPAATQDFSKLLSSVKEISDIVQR

Q: Which results are given for `CCc1nc(C(N)=O)c(Cc2ccc(N3CCC(N4CCN(C)CC4)CC3)c(OC)c2)nc1CN1CCOCC1`?
A: IC50 [1]: 0.00029 µM; IC50 [2]: 0.0018 µM; IC50 [3]: 0.0016 µM

Q: With `CC(=O)Nc1ccc(-n2cnc3cc(-c4ccc(OCCN5CCCCC5)cc4)ccc32)cc1` as the compound, how does the inhibition [4] read?
A: 63%

Q: And the Activity (MOLM-13 [5])?
A: Active

Q: What about the inhibition (MV4-11 [6]) of the same compound?
A: Active

Q: And the inhibition (MOLM-13 [7])?
A: Active

Q: And the IC50 (KM12)?
A: 0.358 µM

Q: What about the inhibition [8] of the same compound?
A: Dde

Q: And the inhibition [9]?
A: Dde

Q: What about the inhibition [10] of the same compound?
A: Dde

Q: What about the inhibition [11] of the same compound?
A: Dde

Q: What about the Activity (MOLM-13 [12]) of the same compound?
A: Active

Q: What about the Activity (MV4-11 [13]) of the same compound?
A: Active

Q: And the Activity (MV4-11 [14])?
A: Active

Q: And the Activity (MV4-11 [15])?
A: Active

Q: And the Activity (MOLM-13 [16])?
A: Active

Q: And the Activity (BNL)?
A: Non-Toxic

Q: And the Activity (H9c2)?
A: Non-Toxic

Q: What about the inhibition [17] of the same compound?
A: 2%

Q: What about the inhibition [18] of the same compound?
A: 13%

Q: And the inhibition [19]?
A: 13%

Q: What about the inhibition [20] of the same compound?
A: 24%

Q: What about the inhibition [21] of the same compound?
A: 11%

Q: What about the inhibition [22] of the same compound?
A: 77%

Q: And the inhibition [23]?
A: 36%

Q: What about the inhibition [24] of the same compound?
A: 78%

Q: And the inhibition [25]?
A: 41%

Q: And the inhibition [26]?
A: 33%

Q: And the inhibition [27]?
A: 5%

Q: What about the inhibition [28] of the same compound?
A: 19%

Q: What about the inhibition [29] of the same compound?
A: 9%

Q: And the inhibition [30]?
A: 27%

Q: And the inhibition [31]?
A: 70%

Q: What about the inhibition [32] of the same compound?
A: 79%

Q: And the IC50 [33]?
A: 0.0438 µM

Q: What about the IC50 [34] of the same compound?
A: 0.0972 µM

Q: What about the IC50 [35] of the same compound?
A: 0.0925 µM

Q: And the IC50 [36]?
A: 0.0236 µM

Q: What about the IC50 (MOLM-13 [37]) of the same compound?
A: 0.0388 µM

Q: And the IC50 (MV4-11 [38])?
A: 0.0549 µM
